Results taken from patent US6737383B1, “Herbicidal oxadiazolidines” (priority 1999, dated 2004).

Assays:
winter wheat [1] = test: Test E winter wheat; assay type: in vivo, Triticum aestivum; conditions: Postemergence
How it was run: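 Visual evaluation versus untreated controls after about 21 to 28 days in the greenhouse. Compound was in a surfactant-containing non-phytotoxic solvent; postemergence plants were treated at the 1- to 4-leaf stage, grown in a 60:40 sandy loam and potting mix blend.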

pigweed = test: Test B pre/postemergence pigweed; assay type: in vivo, Amaranthus retroflexus
How it was run: (§1)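 Test chemicals in a non-phytotoxic solvent mixture with surfactant were sprayed preemergence onto planted seeds and postemergence onto plants 2 to 18 cm tall (1- to 4-leaf stage). After twelve to sixteen days in a greenhouse, injury was visually rated against untreated controls from 0 (no effect) to 10 (complete control).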

soybean = test: Test B pre/postemergence soybean; assay type: in vivo, Glycine max; conditions: for Plant response rating, Soybean: Postemergence
How it was run: as §1

winter wheat [2] = test: Test E winter wheat; assay type: in vivo, Triticum aestivum; conditions: Preemergence
morningglory = test: Test B pre/postemergence morningglory; assay type: in vivo, Ipomoea hederacea
How it was run: as §1

Italian ryegrass = test: Test E Italian ryegrass; assay type: in vivo, Lolium multiflorum; conditions: Preemergence
cocklebur = test: Test B pre/postemergence cocklebur; assay type: in vivo, Xanthium strumarium
How it was run: as §1

wild oat = test: Test E wild oat; assay type: in vivo, Avena fatua; conditions: Preemergence
green foxtail = test: Test E green foxtail; assay type: in vivo, Setaria viridis; conditions: Preemergence
blackgrass = test: Test E blackgrass; assay type: in vivo, Alopecurus myosuroides; conditions: Preemergence
winter barley = test: Test E winter barley; assay type: in vivo, Hordeum vulgare; conditions: Preemergence
[3] = Postemergence, Rate 125 g/ha, scale 0 to 10, 0 is no effect, 10 is complete control
[4] = Preemergence, Rate 62 g/ha, scale of 0 to 10 where 0 is no effect and 10 is complete control
[5] = Preemergence, Rate 250 g/ha, scale of 0 to 10 where 0 is no effect and 10 is complete control
[6] = Preemergence, Rate 500 g/ha, scale of 0 to 10 where 0 is no effect and 10 is complete control
[7] = Rate 62 g/ha, Postemergence, scale 0 to 10 (0 no effect, 10 complete control)
[8] = Rate 250 g/ha, Postemergence, scale of 0 to 10 where 0 is no effect and 10 is complete control
[9] = Rate 500 g/ha, Postemergence, scale 0 to 10, 0 no effect, 10 complete control
[10] = Rate 500 g/ha, 0 to 100 scale (0 no effect, 100 complete control)
[11] = Rate 1000 g/ha, 0 to 100 scale, 0 no effect, 100 complete control

For `CC(C)N(C(=O)n1oc(=O)n(C2CC3CCC2C3)c1=O)c1ccccc1` (stereo not drawn) [Compound 328], the “Plant response rating, Wheat (winter)” value (winter wheat [1]; Rate 250 g/ha, 0 to 100 scale, 0 is no effect, 100 is complete control) was 65, the “Plant response rating, Wheat (winter)” value (winter wheat [1]; Rate 1000 g/ha, 0 to 100 scale where 0 is no effect and 100 is complete control) was 80 and the “Plant response rating, Wheat (winter)” value (winter wheat [1]; Rate 500 g/ha, 0 to 100 scale, 0 is no effect, 100 is complete control) was 70. For the same compound, the “Plant response rating, Redroot pigweed” value (pigweed; [3]) was 3, the “Redroot pigweed plant response rating” value (pigweed; [4]) was 0 and the “Redroot pigweed plant response rating (0 to 10 scale)” value (pigweed; Preemergence, Rate 125 g/ha) was 0. The “Redroot pigweed plant response rating” value (pigweed; [5]) was 0, the “Redroot pigweed plant response rating” value (pigweed; [6]) was 4 and the “Redroot pigweed plant response rating” value (pigweed; [7]) was 2. The “Plant response rating, Redroot pigweed” value (pigweed; [8]) was 3, the “Plant response rating, Redroot pigweed” value (pigweed; [9]) was 5 and the “Plant response rating, Soybean” value (soybean; Rate 125 g/ha, scale 0 to 10, 0 is no effect, 10 is complete control) was 2. The “Soybean plant response rating” value (soybean; [4]) was 0, the “Soybean plant response rating (0 to 10 scale)” value (soybean; Preemergence, Rate 125 g/ha) was 0 and the “Soybean plant response rating” value (soybean; [5]) was 0. For the same compound, the “Soybean plant response rating” value (soybean; [6]) was 0, the “Plant response rating, Soybean” value (soybean; Rate 250 g/ha, scale of 0 to 10 where 0 is no effect and 10 is complete control) was 5 and the “Plant response rating, Soybean” value (soybean; Rate 500 g/ha, scale 0 to 10, 0 no effect, 10 complete control) was 6. For the same compound, the “Plant response rating, Wheat (winter)” value (winter wheat [2]; Rate 250 g/ha, 0 to 100 scale) was 40, the “Plant response rating, Wheat (winter)” value (winter wheat [2]; [10]) was 70 and the “Plant response rating, Wheat (winter)” value (winter wheat [2]; [11]) was 70. For the same compound, the “Plant response rating, Morningglory” value (morningglory; [3]) was 8, the “Morningglory plant response rating” value (morningglory; [4]) was 0 and the “Morningglory plant response rating (0 to 10 scale)” value (morningglory; Preemergence, Rate 125 g/ha) was 0. For the same compound, the “Morningglory plant response rating” value (morningglory; [5]) was 0, the “Morningglory plant response rating” value (morningglory; [6]) was 4 and the “Morningglory plant response rating” value (morningglory; [7]) was 7. For the same compound, the “Plant response rating, Morningglory” value (morningglory; [8]) was 10, the “Plant response rating, Morningglory” value (morningglory; [9]) was 10 and the “Plant response rating, I. Ryegrass” value (Italian ryegrass; Rate 250 g/ha, 0 to 100 scale) was 65. For the same compound, the “Plant response rating, I. Ryegrass” value (Italian ryegrass; [10]) was 60, the “Plant response rating, I. Ryegrass” value (Italian ryegrass; [11]) was 70 and the “Plant response rating, Cocklebur” value (cocklebur; [3]) was 0. For the same compound, the “Cocklebur plant response rating (0 to 10 scale)” value (cocklebur; Preemergence, Rate 125 g/ha) was 0, the “Cocklebur plant response rating” value (cocklebur; [5]) was 0 and the “Cocklebur plant response rating” value (cocklebur; [6]) was 0. The “Cocklebur plant response rating” value (cocklebur; [7]) was 0, the “Plant response rating, Cocklebur” value (cocklebur; [8]) was 0 and the “Plant response rating, Cocklebur” value (cocklebur; [9]) was 0. For the same compound, the “Plant response rating, Wild oat” value (wild oat; Rate 250 g/ha, 0 to 100 scale) was 70, the “Plant response rating, Wild oat” value (wild oat; [10]) was 50 and the “Plant response rating, Wild oat” value (wild oat; [11]) was 60. The “Plant response rating, Green foxtail” value (green foxtail; Rate 250 g/ha, 0 to 100 scale) was 100, the “Plant response rating, Green foxtail” value (green foxtail; [10]) was 85 and the “Plant response rating, Green foxtail” value (green foxtail; [11]) was 100. For the same compound, the “Plant response rating, Blackgrass” value (blackgrass; Rate 250 g/ha, 0 to 100 scale) was 50, the “Plant response rating, Blackgrass” value (blackgrass; [10]) was 50 and the “Plant response rating, Blackgrass” value (blackgrass; [11]) was 40. For the same compound, the “Plant response rating, Barley (winter)” value (winter barley; Rate 250 g/ha, 0 to 100 scale, 0 no effect, 100 complete control) was 40, the “Plant response rating, Barley (winter)” value (winter barley; [10]) was 50 and the “Plant response rating, Barley (winter)” value (winter barley; [11]) was 70.
